For one series, the target named is hCA II (Homo sapiens, UniProt P00918). Kind of series: CA inhibition assay (hydrolysis of 4-nitrophenylacetate). The class given is biochemical. The conditions noted are these: 4-NPA hydrolysis; three independent assays, relative errors 5–10%. The text has this:
(§1) Carbonic anhydrase has the ability to catalyse the hydrolysis of 4-NPA. […] More detailed operations and specific parameters are as reported earlier.

Another series has as its target hCA IX (Homo sapiens, UniProt Q16790). Described as above. It is filed as biochemical. The conditions noted are these: 4-NPA hydrolysis; three independent assays, relative errors 5–10%.
Excerpt: as §1

Take `Nc1ccc(-c2cn(-c3ccc(S(N)(=O)=O)cc3)nn2)cc1` [Compound 14a, 4-(4-(4-Aminophenyl)-1H-1,2,3-triazol-1-yl)benzenesulfonamide]: the melting point is 256 to 258 °C. It took 19.3 nM to reach half-maximal inhibition against hCA II (IC50). At hCA IX, this compound registered an IC50 of 54.4 nM.
The corresponding values for `Nc1c(F)cc(-c2cn(-c3ccc(S(N)(=O)=O)cc3)nn2)cc1F` [Compound 14g, 4-(4-(4-Amino-3,5-difluorophenyl)-1H-1,2,3-triazol-1-yl)benzenesulfonamide] are 280 to 283 °C, 87 nM and 107 nM.
On to `NS(=O)(=O)c1ccc(-n2cc(-c3ccc(NC(=O)CCCC(=O)N[C@@H]4O[C@H](CO)[C@@H](O)[C@H](O)[C@H]4O)c([N+](=O)[O-])c3)nn2)cc1` [Compound 16o, N^1-(2-nitro-4-(1-(4-sulfamoylphenyl)-1H-1,2,3-triazol-4-yl)phenyl)-N^5-((2R,3R,4S,5S,6R)-3,4,5-trihydroxy-6-(hydroxymethyl)tetrahydro-2H-pyran-2-yl)glutaramide], for which the IC50 was 129 nM on hCA II and 216 nM against hCA IX.
For `NS(=O)(=O)c1ccc(-n2cc(-c3ccc(NC(=O)CCCC(=O)N[C@@H]4O[C@H](CO)[C@@H](O)[C@H](O)[C@H]4O)c(F)c3)nn2)cc1` [Compound 16j, N^1-(2-fluoro-4-(1-(4-sulfamoylphenyl)-1H-1,2,3-triazol-4-yl)phenyl)-N^5-((2R,3R,4S,5S,6R)-3,4,5-trihydroxy-6-(hydroxymethyl)tetrahydro-2H-pyran-2-yl)glutaramide], in that order: 88.4 nM and 230 nM.
With `COc1cc(-c2cn(-c3ccc(S(N)(=O)=O)cc3)nn2)ccc1N` [Compound 14f, 4-(4-(4-Amino-3-methoxyphenyl)-1H-1,2,3-triazol-1-yl)benzenesulfonamide], the melting point was 230 to 233 °C. Moreover, half-maximal inhibition against hCA II (IC50) required 100 nM. The same compound displayed an IC50 against hCA IX of 120 nM.
Consider `NS(=O)(=O)c1ccc(-n2cc(-c3cccc(NC(=O)CCCC(=O)N[C@@H]4O[C@H](CO)[C@@H](O)[C@H](O)[C@H]4O)c3)nn2)cc1` [Compound 16i, N^1-(3-(1-(4-sulfamoylphenyl)-1H-1,2,3-triazol-4-yl)phenyl)-N^5-((2R,3R,4S,5S,6R)-3,4,5-trihydroxy-6-(hydroxymethyl)tetrahydro-2H-pyran-2-yl)glutaramide], for which the half-maximal inhibitory concentration (IC50) on hCA II was found to be 10.1 nM; on hCA IX it was 300 nM.
The corresponding values for `COc1cc(-c2cn(-c3ccc(S(N)(=O)=O)cc3)nn2)ccc1NC(=O)CCC(=O)N[C@@H]1O[C@H](CO)[C@@H](O)[C@H](O)[C@H]1O` [Compound 16f, N^1-(2-methoxy-4-(1-(4-sulfamoylphenyl)-1H-1,2,3-triazol-4-yl)phenyl)-N^4-((2R,3R,4S,5S,6R)-3,4,5-trihydroxy-6-(hydroxymethyl)tetrahydro-2H-pyran-2-yl)succinamide] are 112 nM and 329 nM.
For `NS(=O)(=O)c1ccc(-n2cc(-c3ccc(NC(=O)CCC(=O)N[C@@H]4O[C@H](CO)[C@@H](O)[C@H](O)[C@H]4O)c(Cl)c3)nn2)cc1` [Compound 16d, N^1-(2-chloro-4-(1-(4-sulfamoylphenyl)-1H-1,2,3-triazol-4-yl)phenyl)-N^4-((2R,3R,4S,5S,6R)-3,4,5-trihydroxy-6-(hydroxymethyl)tetrahydro-2H-pyran-2-yl)succinamide], in that order: 90.8 nM and 100 nM.
In the case of `NS(=O)(=O)c1ccc(-n2cc(-c3cc(F)c(NC(=O)CCC(=O)N[C@@H]4O[C@H](CO)[C@@H](O)[C@H](O)[C@H]4O)c(F)c3)nn2)cc1` [Compound 16g, N^1-(2,6-difluoro-4-(1-(4-sulfamoylphenyl)-1H-1,2,3-triazol-4-yl)phenyl)-N^4-((2R,3R,4S,5S,6R)-3,4,5-trihydroxy-6-(hydroxymethyl)tetrahydro-2H-pyran-2-yl)succinamide], the IC50 worked out at 149 nM at hCA II and 544 nM against hCA IX.
Regarding `NS(=O)(=O)c1ccc(-n2cc(-c3ccc(NC(=O)CCCC(=O)N[C@@H]4O[C@H](CO)[C@@H](O)[C@H](O)[C@H]4O)cc3)nn2)cc1` [Compound 16h, N^1-(4-(1-(4-sulfamoylphenyl)-1H-1,2,3-triazol-4-yl)phenyl)-N^5-((2R,3R,4S,5S,6R)-3,4,5-trihydroxy-6-(hydroxymethyl)tetrahydro-2H-pyran-2-yl)glutaramide], the IC50 is 26 nM against hCA II and 270 nM against hCA IX.
For `NS(=O)(=O)c1ccc(-n2cc(-c3ccc(NC(=O)CCCC(=O)N[C@@H]4O[C@H](CO)[C@@H](O)[C@H](O)[C@H]4O)c(Cl)c3)nn2)cc1` [Compound 16k, N^1-(2-chloro-4-(1-(4-sulfamoylphenyl)-1H-1,2,3-triazol-4-yl)phenyl)-N^5-((2R,3R,4S,5S,6R)-3,4,5-trihydroxy-6-(hydroxymethyl)tetrahydro-2H-pyran-2-yl)glutaramide], in that order: 91 nM and 290 nM.
For the compound `Nc1cccc(-c2cn(-c3ccc(S(N)(=O)=O)cc3)nn2)c1` [Compound 14b, 4-(4-(3-Aminophenyl)-1H-1,2,3-triazol-1-yl)benzenesulfonamide], the melting point lay in the range of 270 to 273 °C. Besides, at hCA II, the IC50 was 12.3 nM. The compound also returned an IC50 at hCA IX of 50.4 nM.
Consider `Cc1cc(-c2cn(-c3ccc(S(N)(=O)=O)cc3)nn2)ccc1NC(=O)CCCC(=O)N[C@@H]1O[C@H](CO)[C@@H](O)[C@H](O)[C@H]1O` [Compound 16l, N^1-(2-methyl-4-(1-(4-sulfamoylphenyl)-1H-1,2,3-triazol-4-yl)phenyl)-N^5-((2R,3R,4S,5S,6R)-3,4,5-trihydroxy-6-(hydroxymethyl)tetrahydro-2H-pyran-2-yl)glutaramide], for which the IC50 turned out to be 25.6 nM against hCA II and 161 nM at hCA IX.
The corresponding values for `NS(=O)(=O)c1ccc(-n2cc(-c3ccc(NC(=O)CCC(=O)N[C@@H]4O[C@H](CO)[C@@H](O)[C@H](O)[C@H]4O)c(F)c3)nn2)cc1` [Compound 16c, N^1-(2-fluoro-4-(1-(4-sulfamoylphenyl)-1H-1,2,3-triazol-4-yl)phenyl)-N^4-((2R,3R,4S,5S,6R)-3,4,5-trihydroxy-6-(hydroxymethyl)tetrahydro-2H-pyran-2-yl)succinamide] are 70.2 nM and 150 nM.
`Cc1cc(-c2cn(-c3ccc(S(N)(=O)=O)cc3)nn2)ccc1N` [Compound 14e, 4-(4-(4-Amino-3-methylphenyl)-1H-1,2,3-triazol-1-yl)benzenesulfonamide] came in with a melting point of 264 to 266 °C. Besides, on hCA II, the IC50 turned out to be 37.9 nM. Besides, the IC50 on hCA IX turned out to be 111 nM.
Take `Nc1ccc(-c2cn(-c3ccc(S(N)(=O)=O)cc3)nn2)cc1F` [Compound 14c, 4-(4-(4-Amino-3-fluorophenyl)-1H-1,2,3-triazol-1-yl)benzenesulfonamide]: the melting point lay within 245 to 247 °C. Also, it took 15.7 nM to reach half-maximal inhibition against hCA II (IC50). On hCA IX, the IC50 came out at 40.4 nM.
The compound `Nc1ccc(-c2cn(-c3ccc(S(N)(=O)=O)cc3)nn2)cc1[N+](=O)[O-]` [Compound 14h, 4-(4-(4-Amino-3-nitrophenyl)-1H-1,2,3-triazol-1-yl)benzenesulfonamide] returned a melting point of 222 to 225 °C. Further, the IC50 against hCA II came out at 102 nM. The same compound showed an IC50 against hCA IX of 58.2 nM.
For the compound `NS(=O)(=O)c1ccc(-n2cc(-c3cc(F)c(NC(=O)CCCC(=O)N[C@@H]4O[C@H](CO)[C@@H](O)[C@H](O)[C@H]4O)c(F)c3)nn2)cc1` [Compound 16n, N^1-(2,6-difluoro-4-(1-(4-sulfamoylphenyl)-1H-1,2,3-triazol-4-yl)phenyl)-N^5-((2R,3R,4S,5S,6R)-3,4,5-trihydroxy-6-(hydroxymethyl)tetrahydro-2H-pyran-2-yl)glutaramide], the values for the IC50 on hCA II and against hCA IX were 177 nM and 352 nM, respectively.
`Nc1ccc(-c2cn(-c3ccc(S(N)(=O)=O)cc3)nn2)cc1Cl` [Compound 14d, 4-(4-(4-Amino-3-chlorophenyl)-1H-1,2,3-triazol-1-yl)benzenesulfonamide] displayed a melting point of 201 to 203 °C. The compound also came in with an IC50 at hCA II of 39.9 nM. Further, the IC50 against hCA IX is 71 nM.

Broadly, the IC50 is the concentration that gives 50% inhibition. As a reminder, the melting point is the temperature of the solid-liquid transition.

The values above are taken from publication PMC8704611, “Synthesis, Molecular Docking Analysis, and Biological Evaluations of Saccharide-Modified Sulfonamides as Carbonic Anhydrase IX Inhibitors” (International Journal of Molecular Sciences, 2021).
